Experimental data from patent publication US11161856B2 (H. Lundbeck A/S, priority 2017, dated 2021).

Columns and labels:
Type in all cases: biochemical
[1] = target: T1, ABHD6 (Mus musculus, UniProt Q8R2Y0); experiment: In vitro competitive activity-based protein profiling, mouse brain proteome (ABHD6); settings: mouse brain proteome; concentration not given (μM)
T1 construct: Brain; from tissue; host or cells: mouse brain proteome
T1 sequence (Q8R2Y0 1-336): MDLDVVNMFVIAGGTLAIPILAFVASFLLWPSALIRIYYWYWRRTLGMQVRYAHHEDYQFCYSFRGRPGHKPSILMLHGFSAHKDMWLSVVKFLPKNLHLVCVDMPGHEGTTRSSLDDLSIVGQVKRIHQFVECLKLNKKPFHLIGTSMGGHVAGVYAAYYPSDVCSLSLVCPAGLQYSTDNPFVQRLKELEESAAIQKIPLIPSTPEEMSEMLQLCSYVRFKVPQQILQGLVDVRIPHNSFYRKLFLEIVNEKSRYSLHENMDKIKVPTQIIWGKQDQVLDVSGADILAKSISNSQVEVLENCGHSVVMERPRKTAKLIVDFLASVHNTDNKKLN
Description: [The source words this procedure for another target and reports this target under the same test.] (§1) In Vitro Competitive Activity-Based Protein Profiling.
(§2) Proteomes (human prefrontal cortex or cell membrane fractions) (50 μL, 1.0 mg/mL total protein concentration) were preincubated with varying concentrations of inhibitors at 37° C. After 30 min, FP-Rh or HT-01 (1.0 μL, 50 μM in DMSO) was added and the mixture was incubated for another 30 min at room temperature. Reactions were quenched with SDS loading buffer (15 μL-4×) and run on SDS-PAGE.

[2] = target: T2, MAGL (Homo sapiens, UniProt Q99685); experiment: In vitro competitive activity-based protein profiling (FP-Rh or HT-01 probe, gel-based); set-up: IC50 MGLL PC3 (Human, μM) / IC50 MGLL PFC (Human, μM): scale not given here; settings: for IC50 MGLL PC3 (Human, μM) / % Inh MGLL PC3 (Human, μM): PC3 cell proteome; for % Inh MGLL PC3 (Human, μM) / % Inh MGLL PFC (Human, μM): concentration not given (μM); for IC50 MGLL PFC (Human, μM) / % Inh MGLL PFC (Human, μM): prefrontal cortex (PFC) proteome
T2 construct: Proteomes (human prefrontal cortex or cell membrane fractions); from tissue
T2 sequence (Q99685 1-303): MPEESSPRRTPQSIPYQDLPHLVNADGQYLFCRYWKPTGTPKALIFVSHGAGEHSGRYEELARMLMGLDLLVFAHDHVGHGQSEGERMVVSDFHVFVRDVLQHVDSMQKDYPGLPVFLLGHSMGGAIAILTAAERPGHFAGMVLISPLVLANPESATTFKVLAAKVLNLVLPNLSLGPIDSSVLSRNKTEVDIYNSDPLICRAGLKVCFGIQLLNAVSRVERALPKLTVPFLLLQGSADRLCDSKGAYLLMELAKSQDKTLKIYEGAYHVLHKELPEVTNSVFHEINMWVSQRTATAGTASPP
Description: as §1, §2

[3] = target: T3, MGLL (Mus musculus, UniProt O35678); experiment: In vitro competitive activity-based protein profiling, mouse brain proteome (MGLL); set-up: IC50 MGLL Brain (Mouse, μM): scale not given here; settings: for % Inh MGLL Brain (Mouse, μM): concentration not given (μM)
T3 construct: Brain; from tissue; host or cells: mouse brain proteome
T3 sequence (O35678 1-303): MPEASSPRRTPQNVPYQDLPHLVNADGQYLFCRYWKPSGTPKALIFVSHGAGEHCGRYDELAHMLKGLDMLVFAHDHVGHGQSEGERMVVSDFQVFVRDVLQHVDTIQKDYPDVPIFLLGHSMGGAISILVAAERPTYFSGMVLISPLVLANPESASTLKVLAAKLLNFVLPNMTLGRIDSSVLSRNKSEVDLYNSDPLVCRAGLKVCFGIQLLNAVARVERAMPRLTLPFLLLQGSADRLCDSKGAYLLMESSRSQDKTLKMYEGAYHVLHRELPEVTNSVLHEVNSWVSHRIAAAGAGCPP

% Inh ABHD6 Brain (Mouse, μM) [1] | IC50 MGLL PC3 (Human, μM) [2] | % Inh MGLL PC3 (Human, μM) [2] | IC50 MGLL PFC (Human, μM) [2] | IC50 MGLL Brain (Mouse, μM) [3] | % Inh MGLL Brain (Mouse, μM) [3] | % Inh MGLL PFC (Human, μM) [2] | SMILES
# (# is ≤25%) | * * * | ### (### is ≥75%) | * * * | * * * | ### (### is ≥75%) |  | O=C(O)CN1CCN(c2cc(C(F)(F)F)ccc2CN2CCCC23CCN(C(=O)OC(C(F)(F)F)C(F)(F)F)CC3)CC1 [Example 3, 2-(4-(2-((8-(((1,1,1,3,3,3-Hexafluoropropan-2-yl)oxy)carbonyl)-1,8-diazaspiro[4.5]decan-1-yl)methyl)-5-(trifluoromethyl)phenyl)piperazin-1-yl)acetic acid]
# (# is ≤25%) |  |  |  |  | ### (### is ≥75%) | ### (### is ≥75%) | O=C(O)CN1CCC2(CC1)CCN(c1cc(C(F)(F)F)ccc1CN1CCCC13CCN(C(=O)OC(C(F)(F)F)C(F)(F)F)CC3)C2 [Example 154, 2-(2-(2-((8-(((1,1,1,3,3,3-Hexafluoropropan-2-yl)oxy)carbonyl)-1,8-diazaspiro[4.5]decan-1-yl)methyl)-5-(trifluoromethyl)phenyl)-2,1-diazaspiro[4.5]decan-8-yl)acetic acid]
### (### is ≥75%) | * * * | ### (### is ≥75%) | * * * |  | ### (### is ≥75%) |  | CN(Cc1ccc(C(F)(F)F)cc1N1CCN(CC(=O)O)CC1)C1(C)CCN(C(=O)OC(C(F)(F)F)C(F)(F)F)CC1 [Example 26, 2-(4-(2-(((1-(((1,1,1,3,3,3-Hexafluoropropan-2-yl)oxy)carbonyl)-4-methylpiperidin-4-yl)(methyl)amino)methyl)-5-(trifluoromethyl)phenyl)piperazin-1-yl)acetic acid]
# (# is ≤25%) |  |  |  |  | ### (### is ≥75%) | ### (### is ≥75%) | CC1(C(=O)O)CCCN(c2cc(CN3CC4(CCN(C(=O)OC(C(F)(F)F)C(F)(F)F)CC4)C3)cc(C(F)(F)F)c2)C1 (stereo not drawn) [Example 114, l-(3-((7-(((1,1,1,3,3,3-Hexafluoropropan-2-yl)oxy)carbonyl)-2,7-diazaspiro[3,5]nonan-2-yl)methyl)-5-(trifluoromethyl)phenyl)-3-methylpiperidine-3-carboxylic acid]
### (### is ≥75%) |  |  |  |  | ### (### is ≥75%) | ### (### is ≥75%) | O=C(O)C1CCCCN1c1cc(CN2CC3(CCN(C(=O)OC(C(F)(F)F)C(F)(F)F)CC3)C2)cc(C(F)(F)F)c1 (stereo not drawn) [Example 120, l-(3-((7-(((1,1,1,3,3,3-Hexafluoropropan-2-yl)oxy)carbonyl)-2,7-diazaspiro[3,5]nonan-2-yl)methyl)-5-(trifluoromethyl)phenvl)piperidine-2-carboxylic acid]
# (# is ≤25%) |  |  |  |  | ### (### is ≥75%) | ### (### is ≥75%) | O=C(O)CN1CC2CC1CN2c1cc(C(F)(F)F)ccc1CN1CCCC12CCN(C(=O)OC(C(F)(F)F)C(F)(F)F)CC2 (centres unmarked) [Example 126, 2-(5-{2-[(8-{[(1,1,1,3,3,3-Hexafluoropropan-2-yl)oxy]carbonyl}-1,8-diazaspiro[4.5]decan-1-yl)methyl]-5-(trifluoromethyl)phenyl}-2,5-diazabicyclo[2.2.1]heptan-2-yl)acetic acid]
# (# is ≤25%) |  |  |  |  | ## (## is between 25 and 75%) | # (# is ≤25%) | O=C(O)C1CCN(Cc2cc(CN3CCC4(CC3)CCN(C(=O)OC(C(F)(F)F)C(F)(F)F)C4)ccc2Cl)CC1 [Example 224, l-(2-Chloro-5-((2-(((1,1,1,3,3,3-hexafluoropropan-2-yl)oxy)carbonyl)-2,8-diazaspiro[4.5]decan-8-yl)methyl)benzyl)piperidine-4-carboxylic acid]
